Experimental data taken from patent US20250090524A1, “BTK INHIBITORS” (BIOGEN MA INC., priority 2021, published 2025).

Key:
[1] = tested on: CD69 expression on CD19+ B cells in human whole blood; assay: In Vitro Whole Blood CD69 Assay; assay type: cell-based; conditions: B-cell; human heparinized whole blood, anti-human IgD stimulation, overnight (18 to 22 hours), percentage of CD19+ B cells expressing CD69, flow cytometry; read-out: In Vitro HWB CD69 Assay IC50 Score
Procedure: Human heparinized venous blood from health donors was aliquoted into 96-well plate and “spiked” with serial dilutions of formula I compounds in DMSO or with DMSO without drug. The final concentration of DMSO in all wells was 0.1%. The plate was incubated at 37° C. for 30 min. Drug-containing samples were stimulated with […] mouse anti-human IgD-dextran (1A62) or 20 μg/mL polyclonal rabbit F(ab′)2 anti-human IgD.
Phosphate-buffered saline (PBS) was added to the negative control unstimulated sample and the plates were incubated overnight (18 to 22 hours) at 37° C. Cells were stained with fluorochrome-conjugated anti-CD19 and anti-CD69 antibodies. Lyse/fix solution was used to remove red blood cells by hypotonic lysis and to fix the remaining cells, which were then analyzed by flow cytometry. CD19+B cells were gated and analyzed for CD69 expression.
The percentage of B cells expressing CD69 was plotted versus the log 10 of the concentration of the drug and the best-fit curves (variable Hill slope) were generated to obtain the IC50 value.
“†” represents an IC50 of greater than 10 μM. “††” represents an IC50 of greater than 1 μM and equal to or less than 10 μM (1 μM<IC50≤10 μM). “†††” represents an IC50 of less than 1 μM.

BTK = target: T1, BTK (Homo sapiens, UniProt Q06187); assay: In Vitro BTK Kinase Assay: Btk-PolyGAT-LS Assay; assay type: biochemical; conditions: active BTK enzyme 0.25 nM, fluorescein-labeled polyGAT peptide 100 nM, 30 minutes incubation, TRF readout; read-out: In Vitro BTK Kinase Assay IC50 Score
T1 construct: purchased Upstate 14-552
Procedure: The purpose of the BTK in vitro assay is to determine compound potency against BTK through the measurement of IC50. Compound inhibition is measured after monitoring the amount of phosphorylation of a fluorescein-labeled polyGAT peptide (Invitrogen PV3611) in the presence of active BTK enzyme (Upstate 14-552), ATP, and inhibitor. The BTK kinase reaction was done in a black 96 well plate (costar 3694). For a typical assay, a 24 μL aliquot of a ATP/peptide master mix (final concentration; ATP […], polyGAT 100 nM) in kinase buffer (10 mM Tris-HCl pH 7.5, 10 mM MgCl2, 200 μM […], 5 mM DTT, 0.01% Triton X-100, and 0.2 mg/ml casein) is added to each well. Next, I uL of a 4-fold, 40× compound titration in 100% DMSO solvent is added, followed by adding […] of BTK enzyme mix in 1× kinase buffer (with a final concentration of 0.25 nM). The assay is incubated for 30 minutes before being stopped with […] of a 50 mM EDTA solution. Aliquots (5 uL) of the kinase reaction are transferred to a low volume white 384 well plate (Corning 3674), and […] of a 2× detection buffer (Invitrogen PV3574, with 4 nM Tb-PY20 antibody, Invitrogen PV3552) is added. The plate is covered and incubated for 45 minutes at room temperature. Time resolved fluorescence (TRF) on Molecular Devices M5 (332 nm excitation; 488 nm emission; 518 nm fluorescein emission) is measured. IC50 values are calculated using a four parameter fit with 100% enzyme activity determined from the DMSO control and 0% activity from the EDTA control.
“†” represents an IC50 of greater than 1 μM and equal to or less than 10 μM. “††” represents an IC50 of greater than 10 nM and equal to or less than 1 μM (10 nM<IC50≤1 μM). “†††” represents an IC50 of greater than 1 nM and equal to or less than 10 nM (1 nM<IC50≤10 nM). “††††” represents an IC50 of less than 1 nM.

T1 sequence (Q06187 whole entry): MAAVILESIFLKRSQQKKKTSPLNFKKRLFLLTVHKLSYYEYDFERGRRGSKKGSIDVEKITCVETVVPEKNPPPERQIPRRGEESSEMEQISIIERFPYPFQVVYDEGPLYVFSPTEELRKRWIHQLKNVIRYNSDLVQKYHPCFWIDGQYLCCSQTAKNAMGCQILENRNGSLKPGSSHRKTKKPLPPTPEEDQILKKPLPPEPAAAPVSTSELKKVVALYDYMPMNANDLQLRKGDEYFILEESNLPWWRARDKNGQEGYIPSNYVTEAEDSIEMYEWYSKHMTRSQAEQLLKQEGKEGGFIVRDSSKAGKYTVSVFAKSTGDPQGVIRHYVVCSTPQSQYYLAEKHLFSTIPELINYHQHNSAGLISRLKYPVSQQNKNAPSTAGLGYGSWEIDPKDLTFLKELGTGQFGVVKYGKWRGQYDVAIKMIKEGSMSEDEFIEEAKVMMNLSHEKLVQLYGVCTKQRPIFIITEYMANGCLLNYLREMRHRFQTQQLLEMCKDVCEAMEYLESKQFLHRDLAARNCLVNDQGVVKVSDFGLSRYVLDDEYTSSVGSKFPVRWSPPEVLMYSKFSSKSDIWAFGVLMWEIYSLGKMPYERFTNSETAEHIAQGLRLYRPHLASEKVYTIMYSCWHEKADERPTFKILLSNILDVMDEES

## C=CC(=O)N(C)[C@H]1CC[C@H](C(=O)c2nc(-c3cnn(C)c3)cn3nccc23)C1 (relative stereo) [Example 18, N-methyl-N-(3-(6-(1-methyl-1H-pyrazol-4-yl)pyrazolo[1,5-a]pyrazine-4-carbonyl)cyclopentyl)acrylamide]
[1]
  IC50: 1000 to 10000 nM
BTK
  IC50: 1000 to 10000 nM

## C=CC(=O)N1C[C@H]2C[C@@H](c3nc(-c4cnn(C)c4)cn4nccc34)C[C@H]2C1 (single isomer, unassigned) [Example 1]
[1]
  IC50: < 1000 nM
BTK
  IC50: < 1 nM

## C=CC(=O)N(C)C1CCC(C(=O)c2nc(-c3cnn(C)c3)cn3nccc23)C1 (single isomer, unassigned) [Example 16, N-methyl-N-(3-(6-(1-methyl-1H-pyrazol-4-yl)pyrazolo[1,5-a]pyrazine-4-carbonyl)cyclopentyl)acrylamide]
[1]
  IC50: 1000 to 10000 nM
BTK
  IC50: 1 to 10 nM

## C=CC(=O)N(C)[C@@H]1CCC[C@@H](c2nc(-c3cnn(C)c3)cn3nccc23)C1 (single isomer, unassigned) [Example 24, trans-N-methyl-N-(3-(6-(1-methyl-1H-pyrazol-4-yl)pyrazolo[1,5-a]pyrazin-4-yl)cyclohexyl)acrylamide]
[1]
  IC50: 1000 to 10000 nM
BTK
  IC50: 10 to 1000 nM

## C=CC(=O)N(C)[C@H]1CCC[C@H](c2nc(-c3cnn(C)c3)cn3nccc23)C1 (single isomer, unassigned) [Example 25, trans-N-methyl-N-(3-(6-(1-methyl-1H-pyrazol-4-yl)pyrazolo[1,5-a]pyrazin-4-yl)cyclohexyl)acrylamide]
[1]
  IC50: 1000 to 10000 nM
BTK
  IC50: 10 to 1000 nM

## C=CC(=O)N(C)[C@H]1CCC[C@@H](c2nc(-c3cnn(C)c3)cn3nccc23)C1 (single isomer, unassigned) [Example 26, cis-N-methyl-N-(3-(6-(1-methyl-1H-pyrazol-4-yl)pyrazolo[1,5-a]pyrazin-4-yl)cyclohexyl)acrylamide]
[1]
  IC50: 1000 to 10000 nM
BTK
  IC50: 1 to 10 nM

## C=CC(=O)N(C)[C@@H]1CCC[C@H](c2nc(-c3cnn(C)c3)cn3nccc23)C1 (single isomer, unassigned) [Example 27, cis-N-methyl-N-(3-(6-(1-methyl-1H-pyrazol-4-yl)pyrazolo[1,5-a]pyrazin-4-yl)cyclohexyl)acrylamide]
[1]
  IC50: 1000 to 10000 nM
BTK
  IC50: 10 to 1000 nM

## C=CC(=O)N1CCC[C@@H](Sc2nc(-c3cnn(C)c3)cn3nccc23)CC1 (single isomer, unassigned) [Example 30]
BTK
  IC50: 10 to 1000 nM

## C=CC(=O)N1CCC[C@H](Sc2nc(-c3cnn(C)c3)cn3nccc23)CC1 (single isomer, unassigned) [Example 31]
BTK
  IC50: 1000 to 10000 nM

## C=CC(=O)N(C)[C@H]1CC[C@@H](C(=O)c2nc(-c3cnn(C)c3)cn3nccc23)C1 (stereo in doubt) [Example 17, N-methyl-N-(3-(6-(1-methyl-1H-pyrazol-4-yl)pyrazolo[1,5-a]pyrazine-4-carbonyl)cyclopentyl)acrylamide]
BTK
  IC50: 10 to 1000 nM

## C=CC(=O)N(C)[C@@H]1CC[C@H](C(=O)c2nc(-c3cnn(C)c3)cn3nccc23)C1 (stereo in doubt) [Example 19, N-methyl-N-(3-(6-(1-methyl-1H-pyrazol-4-yl)pyrazolo[1,5-a]pyrazine-4-carbonyl)cyclopentyl)acrylamide]
[1]
  IC50: < 1000 nM
BTK
  IC50: 1000 to 10000 nM

## C=CC(=O)N(C)C[C@H]1CC[C@H](c2nc(-c3cnn(C)c3)cn3nccc23)C1 (stereo in doubt) [Example 20, N-methyl-N-((3-(6-(1-methyl-1H-pyrazol-4-yl)pyrazolo[1,5-a]pyrazin-4-yl)cyclopentyl)methyl)acrylamide]
BTK
  IC50: 10 to 1000 nM

## C=CC(=O)N(C)C[C@H]1CC[C@@H](c2nc(-c3cnn(C)c3)cn3nccc23)C1 (stereo in doubt) [Example 21, N-methyl-N-((3-(6-(1-methyl-1H-pyrazol-4-yl)pyrazolo[1,5-a]pyrazin-4-yl)cyclopentyl)methyl)acrylamide]
BTK
  IC50: 1 to 10 nM

## C=CC(=O)N(C)C[C@@H]1CC[C@H](c2nc(-c3cnn(C)c3)cn3nccc23)C1 (stereo in doubt) [Example 22, N-methyl-N-((3-(6-(1-methyl-1H-pyrazol-4-yl)pyrazolo[1,5-a]pyrazin-4-yl)cyclopentyl)methyl)acrylamide]
BTK
  IC50: 10 to 1000 nM

## C=CC(=O)N(C)C[C@@H]1CC[C@@H](c2nc(-c3cnn(C)c3)cn3nccc23)C1 (stereo in doubt) [Example 23, N-methyl-N-((3-(6-(1-methyl-1H-pyrazol-4-yl)pyrazolo[1,5-a]pyrazin-4-yl)cyclopentyl)methyl)acrylamide]
BTK
  IC50: 10 to 1000 nM

## C=CC(=O)N1C[C@H]2C[C@H](c3nc(-c4cnn(C)c4)cn4nccc34)C[C@H]2C1 [Example 2, 1-[(3aS,6aR)-5-[6-(1-methylpyrazol-4-yl)pyrazolo[1,5-a]pyrazin-4-yl]-3,3a,4,5,6,6a-hexahydro-1H-cyclopenta[c]pyrrol-2-yl]prop-2-en-1-one]
[1]
  IC50: 1000 to 10000 nM
BTK
  IC50: 1 to 10 nM

## C=CC(=O)N1CC2CC(c3cc(-c4cnn(C)c4)cn4nccc34)CC2C1 (stereo not shown) [Example 3, 1-[5-[6-(1-methylpyrazol-4-yl)pyrazolo[1,5-a]pyridin-4-yl]-3,3a,4,5,6,6a-hexahydro-1H-cyclopenta[c]pyrrol-2-yl]prop-2-en-1-one]
[1]
  IC50: < 1000 nM
BTK
  IC50: < 1 nM

## C=CC(=O)N1CCC(c2nc(-c3cnn(C)c3)cn3nccc23)CC1 [Example 4, 1-[4-[6-(1-methylpyrazol-4-yl)pyrazolo[1,5-a]pyrazin-4-yl]-1-piperidyl]prop-2-en-1-one]
[1]
  IC50: 1000 to 10000 nM
BTK
  IC50: 1 to 10 nM

## C=CC(=O)N1CCCC(c2nc(-c3cnn(C)c3)cn3nccc23)C1 (stereo not shown) [Example 5, 1-[3-[6-(1-methylpyrazol-4-yl)pyrazolo[1,5-a]pyrazin-4-yl]-1-piperidyl]prop-2-en-1-one]
BTK
  IC50: 10 to 1000 nM

## C=CC(=O)N1CCCC(c2nc(-c3cnn(C)c3)cn3nccc23)CC1 (stereo not shown) [Example 6, 1-[4-[6-(1-methylpyrazol-4-yl)pyrazolo[1,5-a]pyrazin-4-yl]azepan-1-yl]prop-2-en-1-one]
[1]
  IC50: 1000 to 10000 nM
BTK
  IC50: 10 to 1000 nM

## C=CC(=O)N1CCC(c2nc(-c3cnn(C)c3)cn3ncc(F)c23)CC1 [Example 7, 1-[4-[3-fluoro-6-(1-methylpyrazol-4-yl)pyrazolo[1,5-a]pyrazin-4-yl]-1-piperidyl]prop-2-en-1-one]
[1]
  IC50: < 1000 nM
BTK
  IC50: 1 to 10 nM

## C=CC(=O)N1CCC(c2cc(-c3cnn(C)c3)cn3nccc23)CC1 [Example 8, 1-[4-[6-(1-methylpyrazol-4-yl)pyrazolo[1,5-a]pyridin-4-yl]-1-piperidyl]prop-2-en-1-one]
[1]
  IC50: 1000 to 10000 nM
BTK
  IC50: 1 to 10 nM

## C=CC(=O)N1CCC(c2nc(-c3cnn(C)c3)cn3ncc(C)c23)CC1 [Example 9, 1-[4-[3-methyl-6-(1-methylpyrazol-4-yl)pyrazolo[1,5-a]pyrazin-4-yl]-1-piperidyl]prop-2-en-1-one]
[1]
  IC50: 1000 to 10000 nM
BTK
  IC50: 1 to 10 nM

## C=CC(=O)N1CC=C(c2nc(-c3cnn(C)c3)cn3ncc(C)c23)CC1 [Example 10, 1-[4-[3-methyl-6-(1-methylpyrazol-4-yl)pyrazolo[1,5-a]pyrazin-4-yl]-3,6-dihydro-2H-pyridin-1-yl]prop-2-en-1-one]
BTK
  IC50: 10 to 1000 nM

## C=CC(=O)N1CCC(c2nc(-c3cnn(C)c3)cn3nccc23)CC1C (stereo not shown) [Example 12, 1-[2-methyl-4-[6-(1-methylpyrazol-4-yl)pyrazolo[1,5-a]pyrazin-4-yl]-1-piperidyl]prop-2-en-1-one]
BTK
  IC50: 10 to 1000 nM
